Results reported in PMC10578927, “An unconventional gatekeeper mutation sensitizes inositol hexakisphosphate kinases to an allosteric inhibitor” (eLife, 2023).

Columns and labels:
[1] = tested on: HCT116 cells; experiment: Reverse transcription qPCR of 45S pre-rRNA transcript levels; assay type: cell-based; settings: HCT116 cells treated 5 hr, RT-qPCR, preliminary experiment
Description: Total RNA was extracted using the RNeasy kit from QIAGEN. cDNA was generated using Thermo Fisher Scientific SuperScript III Reverse Transcriptase and 2 µg RNA following the vendor’s protocol. […] The cDNA was diluted 10-fold before conducting qPCR using SYBR Green PCR Master Mix and a StepOnePlus RT PCR System. The difference in transcript levels was calculated using the ΔΔct method and technical triplicates.

[2] = molecular target: T1, IP6KA^wt (Entamoeba histolytica, UniProt N9UNA8); experiment: NMR activity assay for EhIP6KA constructs; assay type: biochemical
T1 sequence (N9UNA8 1-270): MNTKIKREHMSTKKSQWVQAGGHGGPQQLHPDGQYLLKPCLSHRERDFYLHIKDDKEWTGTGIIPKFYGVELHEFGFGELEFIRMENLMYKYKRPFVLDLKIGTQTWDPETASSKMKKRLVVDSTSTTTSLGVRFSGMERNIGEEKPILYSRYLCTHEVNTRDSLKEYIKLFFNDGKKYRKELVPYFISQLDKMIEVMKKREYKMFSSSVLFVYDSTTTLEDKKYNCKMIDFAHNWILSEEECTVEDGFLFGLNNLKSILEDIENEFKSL
Description: The NMR assay for EhIP6KA activity was performed similarly as described before ([Harmel et al., 2019]) with slight alterations. Enzyme assays were performed in D2O in a total volume of 150 µl containing 20 mM MES pH* 6.4, 50 mM NaCl, 6 mM MgCl2, 1 mM ATP, 0.2 mg/ml BSA, 1 mM DTT, 5 mM creatine phosphate, and 1 U/ml creatine kinase (ATP-regenerating system) and 50 nM kinase if not otherwise stated. MES, NaCl, and BSA were prepared as buffer A and DTT and creatine phosphate as buffer B in D2O and were adjusted to pH* 6.4, respectively. If applicable, inhibitor was added as a DMSO-d6 stock in a twofold dilution series at a final DMSO concentration of 1% if not otherwise mentioned. Otherwise, DMSO-d6 was added to the same percentage. The samples were equilibrated at 37°C for 3 min and the reaction initiated by adding 100 µM [^13C6]-InsP6. The reaction was quenched with 400 µl quenching solution (20 mM EDTA pD 6.0, 68.75 mM NaCl) and transferred into an NMR tube before being measured on a Bruker […] 600 PLUS with an NMR pulse program developed previously ([Harmel et al., 2019]).

[3] = molecular target: T2, IP6K1^L210V (Homo sapiens, UniProt Q92551, L210V); experiment: Michaelis–Menten and Lineweaver–Burk kinetics (NMR); assay type: biochemical; settings: versus ATP, two inhibitor concentrations
T2 construct: made in house; host or cells: E. coli Arctic Express
Description: Kinetic assays were performed in D2O in a total volume of 500 µl containing the same buffer components for IP6K and IP6KA constructs as stated for the NMR activity assays above. […] If applicable, inhibitor was added as a DMSO-d6 stock at a final DMSO concentration of 1%. Otherwise, DMSO-d6 was added to the same percentage. The samples were equilibrated at 37°C for 5 min and the reaction initiated by adding 100 µM [^13C6]-InsP6. The reaction time was adjusted so that conversion would not exceed 20% to remain in the linear range for initial velocity measurements. The reaction was quenched with 38 µl 700 mM EDTA pH* 8.0 and transferred into an NMR tube before being measured on a Bruker […] 600 PLUS with an NMR pulse program developed previously ([Harmel et al., 2019]). Initial velocities were calculated by dividing the amount of generated product by the product of reaction time in seconds and mass of the kinase in mg.

[4] = molecular target: T2, IP6K1^L210V; experiment: NMR activity assay, [13C6]-InsP6 to 5PP-InsP5, with ATP-regenerating system; assay type: biochemical
Excerpt: (§1) The gatekeeper mutants L210G and L210A of IP6K1 were generated by site-directed mutagenesis and the enzymes were recombinantly expressed, analogous to the WT kinase, as MBP-fusion proteins. To assess their catalytic activity, we used an NMR assay that harnesses fully ^13C-labeled InsP6 as a substrate and enables direct product readout of 5PP-InsP5 (Figure 2b and Figure 2—figure supplement 1; [Puschmann et al., 2019]; [Harmel et al., 2019]). […] Likewise, IP6K2 suffered a drastic decline in substrate turnover upon gatekeeper mutation to glycine (Figure 2—figure supplement 2).
(§2) The NMR assay for IP6K activity was performed similarly as described before ([Harmel et al., 2019]) with slight alterations. Enzyme assays were performed in D2O in a total volume of 150 µl containing 20 mM 4-(2-hydroxyethyl)-1-piperazineethanesulfonic acid (HEPES) pH* 6.8, 50 mM NaCl, 6 mM MgCl2, 1 mM ATP, 0.2 mg/ml BSA, 1 mM DTT, 5 mM creatine phosphate and 1 U/ml creatine kinase (ATP-regenerating system) and 50 nM kinase if not otherwise stated. HEPES, NaCl, and BSA were prepared as buffer A and DTT and creatine phosphate as buffer B in D2O and were adjusted to pH* 6.8, respectively. If applicable, inhibitor was added as a DMSO-d6 stock in a twofold dilution series at a final DMSO concentration of 1% if not otherwise mentioned. Otherwise, DMSO-d6 was added to the same percentage. The samples were equilibrated at 37°C for 3 min and the reaction initiated by adding 100 µM [^13C6]-InsP6.

[5] = molecular target: T3, IP6K1^wt (Homo sapiens, UniProt Q92551); experiment: as above; assay type: biochemical; settings: 1 mM ATP, ATP-regenerating system
T3 construct: made in house; host or cells: E. coli Arctic Express
Excerpt: as §1, §2

T2 sequence (Q92551 whole entry L210V): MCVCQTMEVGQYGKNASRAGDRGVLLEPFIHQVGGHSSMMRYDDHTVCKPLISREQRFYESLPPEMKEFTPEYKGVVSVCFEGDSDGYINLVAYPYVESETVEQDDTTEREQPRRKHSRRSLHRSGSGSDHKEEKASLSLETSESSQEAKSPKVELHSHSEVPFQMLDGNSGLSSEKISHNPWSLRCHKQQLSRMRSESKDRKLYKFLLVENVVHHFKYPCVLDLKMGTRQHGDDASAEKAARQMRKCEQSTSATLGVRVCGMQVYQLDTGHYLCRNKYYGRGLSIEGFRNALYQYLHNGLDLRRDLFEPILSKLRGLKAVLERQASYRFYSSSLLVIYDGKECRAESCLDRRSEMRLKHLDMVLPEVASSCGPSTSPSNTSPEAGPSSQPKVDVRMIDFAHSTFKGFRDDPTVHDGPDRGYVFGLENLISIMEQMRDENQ
T3 sequence (Q92551 whole entry): as the sequence (Q92551 whole entry L210V) above, with V210L counted along it

Structure (SMILES): O=C(O)c1ccc2c(c1)C(=O)N(c1ccc(-c3nc4ccc(N5C(=O)c6ccc(C(=O)O)cc6C5=O)cc4[nH]3)cc1)C2=O [FMP-201300]
- reduction of ribosomal RNA synthesis (45S pre-rRNA transcript levels) [1]: able to recapitulate this recently reported phenotype
- IC50 [2]: 5820 nM
- mechanism of inhibition (Lineweaver–Burk) [3]: allosteric mechanism
- IC50 ([4]; 100 μM InsP6): 75 nM
- IC50 ([4]; 500 μM InsP6): 87 nM
- difference in IC50 values measured at 100 and 500 µM InsP6 ([4]; IP6K1^L210V): negligible
- IC50 ([4]; NMR assay, 1 mM ATP, ATP-regenerating system): 114 nM
- IC50 [5]: 810 nM
